Results as given in US12721821B2, “Plant essential oil amino acid composition and preparation method therefor” (COCRYSTAL TECHNOLOGY (JIAXING) CO., LTD, priority 2021, dated 2026).

Test: Vapor pressure from thermogravimetric analysis (TGA), kept at 80° C. for 100 minutes
Format: physicochemical
Settings: calculated from weight loss rate
Protocol: For thermogravimetric analysis (TGA) method, instrument model: Netzsch TG 209F3 thermogravimetric analyzer detection, temperature: 80° C. for 100 minutes, purge gas: 25 mL/min.
Thymol and/or carvacrol and L-proline and/or sarcosine were added to a ball mill according to the compositions shown in Table 2, and vibrated at a vibrating frequency of 30 Hz for a vibrating time of 20 minutes to obtain the compositions. The compositions were subjected to thermogravimetric analysis (TGA), kept at 80° C. for 100 minutes, and the vapor pressure of thymol and/or carvacrol and the compositions thereof were calculated according to the formula:
[formula] • wherein m is the mass of the sample at time t, −dm/dt is the weight loss rate per unit area, p is the saturated vapor pressure, α is the vaporization constant, T is the absolute temperature, R is the gas constant, and M is the molecule mass of the evaporated substance. Under vacuum condition, α=1. α can be considered as a constant when a protective gas is present.

SMILES | vapor pressure (Pa) at 80° C. [Pa]
Cc1ccc(C(C)C)cc1O [carvacrol] | 242
Cc1ccc(C(C)C)c(O)c1 [thymol] | 333
